For assay [1], the system named is HCT-116 cells. Briefly: Effect of D-PDMP on cell proliferation (3H-thymidine incorporation). The assay is classed as cell-based, human. The procedure:
HCT-116 cells were seeded (10^4/well) in 96-well sterile plastic plates, and grown for 24 h in complete medium, with 10% fetal calf serum. The media was then replaced with 2% serum-containing media (100 μL) plus ^3H-thymidine ([…]), with and without D-PDMP. After another 24 h incubation, incorporation of ^3H-thymidine into DNA was measured by scintillation spectrometry.
(Dividing cells build labelled thymidine or BrdU into new DNA.)

The target in the next assay is T1, UGCG (Homo sapiens, UniProt Q16739).
T1 construct: endogenous in cells; host or cells: HCT-116
T1 sequence (Q16739 1-394): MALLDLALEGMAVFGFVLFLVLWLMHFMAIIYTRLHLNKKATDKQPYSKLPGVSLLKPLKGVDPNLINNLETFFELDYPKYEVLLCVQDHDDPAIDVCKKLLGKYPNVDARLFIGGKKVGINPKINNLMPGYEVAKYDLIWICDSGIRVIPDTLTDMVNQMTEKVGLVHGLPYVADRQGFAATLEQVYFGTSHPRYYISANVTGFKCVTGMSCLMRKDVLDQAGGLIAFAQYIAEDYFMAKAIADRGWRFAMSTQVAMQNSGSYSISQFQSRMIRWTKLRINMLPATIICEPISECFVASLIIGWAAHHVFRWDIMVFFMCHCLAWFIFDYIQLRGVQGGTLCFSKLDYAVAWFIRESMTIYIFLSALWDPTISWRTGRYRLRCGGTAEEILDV
Briefly: Effect of D-PDMP on IHC localization of glycosyltransferases in human CRC cells (UGCG). The settings on record: HCT-116, 10p M D-PDMP, 24 h, vs control. The assay is classed as cell-based. The procedure: (§1) HCT-116 cells were seeded (10^4) onto sterilized glass coverslips, which were then placed in 6-well sterile plastic trays and grown for 24 h in complete media. Next, the media was replaced with 2 mL of 2% serum-containing media, plus […] D-PDMP. After incubation for 24 and 96 h, the media was removed, and cells were fixed with ethanol, washed, incubated with antibody against β-1,4-GalT-V or UGCG, and photographed.

A further assay has as its target T2, β-1,4-GalT-V (Homo sapiens, UniProt O43286).
T2 construct: endogenous in cells; host or cells: HCT-116
T2 sequence (O43286 1-388): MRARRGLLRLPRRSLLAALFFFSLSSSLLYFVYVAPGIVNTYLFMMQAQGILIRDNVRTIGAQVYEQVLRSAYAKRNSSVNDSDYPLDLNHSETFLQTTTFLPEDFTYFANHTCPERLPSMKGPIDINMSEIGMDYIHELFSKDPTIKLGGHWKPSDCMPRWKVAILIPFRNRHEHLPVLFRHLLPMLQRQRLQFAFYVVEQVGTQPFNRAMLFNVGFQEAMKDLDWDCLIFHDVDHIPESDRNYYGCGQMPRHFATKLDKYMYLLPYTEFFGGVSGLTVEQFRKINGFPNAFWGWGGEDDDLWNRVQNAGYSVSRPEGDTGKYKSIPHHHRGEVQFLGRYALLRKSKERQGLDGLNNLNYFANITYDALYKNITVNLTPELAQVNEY
Briefly: Effect of D-PDMP on IHC localization of glycosyltransferases in human CRC cells (β-1,4-GalT-V). The assay is classed as cell-based. The settings on record: HCT-116, D-PDMP, 24 and 96 h, vs controls. The procedure: as §1

Assay [2] has as its system HCT-116 cells. Briefly: LC-MS sphingolipid levels in HCT-116 cells. The assay is classed as cell-based, human. The following applies: D-PDMP 10 μM, 24 h, vs control. The procedure: HCT-116 cells were seeded ([…]) onto sterilized (100-mm^2) plastic Petri dishes in 10 mL of medium for 24 h. Media was then changed to 2% serum-containing media, with and without D-PDMP (10 μM). After 24 h, media was removed, and total lipids were extracted, using hexane-isopropanol (3:2, by volume) in the presence of sphingolipid internal standards, and subject to MS. […] Data represent averages±SEm, N=3 biological replicates for control and 10 μM D-PDMP in (FIGS. 4A-4H), and the unpaired t-tested was used for statistical analysis.*P≤0.05,**P≤0.01]\
Sphingolipid levels in human CRC tissue and in human cultured CRC cells (HCT-116) were measured by LC-MS, as described previously (23). Visibly normal and CRC tissues (50 mg) were homogenized in chloroform-methanol (2:1), in the presence of sphingolipid internal standards. […] HCT-116 cells were grown in 100 mm^2 sterile, plastic Petri dishes. Lipid extracts were subject to LC-MS, as described (24, 25).

Assay [3] deals with human colorectal cancer cells (HCT-116). Briefly: [89Zr] GalT-V antibody binding and internalization (gamma counter). The assay is classed as cell-based. The following applies: HCT-116 pre-incubated with D-PDMP 20 uM. The protocol:
Cell cultures were incubated with increasing concentrations of [^89Zr] GalT-V antibody, washed and radioactivity was measured in an automated gamma counter (1282 Compu-gamma CS, Pharmacia/LKB Nuclear, Inc.).
Cell cultures were incubated with increasing concentrations of [^89Zr] GalT-V antibody, washed and radioactivity was measured in a gamma counter. […] GalT-V antibody binding in human coronary arterial endothelial cells (HCAEC) and human colorectal cancer cells (HCT-116) after 2-hour incubation at 37° C.
Cells were pre-incubated with and without an inhibitor of GalT-V, D-PDMP (20 uM), followed by the measurement of binding and internalization of [^89Zr] GalT-V antibody. […] GalT-V antibody (n=3, p**=0.0079).
Cells were incubated in the presence of excess unlabeled (cold, 50 ug/mL) GalT-V antibody as well as [^89Zr] GalT-V Ab. […] (n=3, p****=<0.0001). Results are shown in FIG. 24 which depicts specificity of binding and internalization of [^89Zr] GalT-V antibody in human colorectal cancer cells (HCT-116).

The next assay has as its system renal cancer. The following applies: mouse, in vivo; cited from earlier work.
The test system of a further assay is human endothelial cells. The following applies: cited from earlier work.

Each structure is given as a SMILES string.

With `CCCCCCCCCC(=O)N[C@H](CN1CCOCC1)[C@H](O)c1ccccc1` [D-PDMP, D-threo-1-phenyl-2-decanoylamino-3-morpholino-1-propanol], the “proliferation of HCT-116 cells” value in the assay on HCT-116 cells [1] (24 and 96 h, compared to control cells) is “dose- and time-dependent (FIGS. 3A, 3B) decrease in proliferation”. Besides, the “maximal effective dose (decrease in proliferation)” value with HCT-116 cells [1] (HCT-116, 24 and 96 h) worked out at 20 µM. In addition, the UGCG immunofluorescence result on UGCG is on record as “No difference”. Moreover, at β-1,4-GalT-V, the GalT-V fluorescence result is listed as “reduced GalT-V fluorescence”. Also, in the assay with HCT-116 cells [2], the “level of Cer” value is “reduced levels”, the “level of DHCer” value is listed as “reduced levels”, the “level of DHLacCer” value is “reduced levels” and the level of dihexosylceramide result is on record as “reduced levels”. In addition, in the assay with HCT-116 cells [2], the “level of dihydroGalCer/dihydroGlcCer” value is reported as “reduced levels” and the level of monohexosylceramides entry is recorded as “reduced levels”. In addition, the “effect on binding and internalization of [89Zr] GalT-V antibody” value in assay [3] is “reduced the binding and internalization”. In addition, in the assay on renal cancer, the GalT-V mass entry is “markedly reduced” and the tumor volume entry is recorded as “markedly reduced tumor volume”. Besides, in the assay with human endothelial cells, the angiogenesis entry is given as “reduced angiogenesis”.

Values taken from patent US20240360247A1, “COMPOSITIONS AND METHODS FOR TREATMENT OF CANCER” (Johns Hopkins University, priority 2021, published 2024).
